According to patent US20170001988A1, “PIPERIDINE AND PIPERAZINE DERIVATIVES AND THEIR USE IN TREATING VIRAL INFECTIONS AND CANCER” (THE UNITED STATES OF AMERICA, AS REPRESENTED BY THE …, priority 2013, published 2017):
Read-outs that look alike come from different tables or passages of the source.

How the values were obtained:
Huh7.5.1 cells = assay: ATPLite cytotoxicity assay
Text: (§1) EC50 was generated using the HCV-Luc infection assay and IC50 using the ATPLite assay.
(§2) EC50 was generated using the HCV-Luc infection assay and TC50 using the ATPLite assay.
(§3) The cytotoxicity of the compounds was further evaluated in HepG2 cells and primary human hepatocytes.

HCV-Luc = HCV-Luc infection assay; type: cell-based; details: for EC50: Hepatitis C virus
[1] = ATPLite cytotoxicity assay; details: human, Huh7.5.1 cells
Text: as §1, §2, §3

Compound	CC50 (Huh7.5.1 cells; human)	EC50 (HCV-Luc; Table 3, read-out: EC50)	Selective Index (HCV-Luc; Table 3)	also measured
CN1CCCN(C(c2ccccc2)c2ccc(Cl)cc2)CC1 (stereo not shown)				CC50 (Huh7.5.1 cells; Table 5): 12.8 ± 0.1 µM; EC50 (HCV-Luc; Table 5, read-out: EC50): 0.057 ± 0.008 µM; Selective Index (HCV-Luc; Table 5): 225
Clc1ccc(C(c2ccc(Cl)cc2)N2CCCCC2)cc1	69 ± 0.9 µM			EC50 (HCV-Luc; Table 5, read-out: EC50): 17.4 ± 2.8 µM; Selective Index (HCV-Luc; Table 5): 4
Clc1ccc(C(c2ccc(Cl)cc2)N2CCOCC2)cc1	62.1 ± 2.8 µM			EC50 (HCV-Luc; Table 5, read-out: EC50): 29.7 ± 0.1 µM; Selective Index (HCV-Luc; Table 5): 2
CN1CCC(N(c2ccccc2)c2ccccc2)CC1	56.8 ± 8.2 µM			EC50 (HCV-Luc; Table 5, read-out: EC50): 2.72 ± 1.13 µM; Selective Index (HCV-Luc; Table 5): 21
CN1CCC(N(c2ccccc2)c2ccc(OC(C)(C)C)cc2)CC1	78.7 ± 0.6 µM			EC50 (HCV-Luc; Table 5, read-out: EC50): 0.354 ± 0.097 µM; Selective Index (HCV-Luc; Table 5): 222
c1ccc(C(c2ccccc2)C2CCNCC2)cc1				CC50 (Huh7.5.1 cells; Table 5): 32.5 ± 0.1 µM; EC50 (HCV-Luc; Table 5, read-out: EC50): 0.072 ± 0.002 µM; Selective Index (HCV-Luc; Table 5): 451
c1ccc(C(c2ccccc2)c2ccncc2)cc1	65.1 ± 2.1 µM			EC50 (HCV-Luc; Table 5, read-out: EC50): > 31.5 µM; Selective Index (HCV-Luc; Table 5): <2
CCN1CCN(C2c3ccccc3-c3ccc(Br)cc32)CC1 (stereo not shown)	53.1 ± 1.3 µM			EC50 (HCV-Luc; Table 5, read-out: EC50): 1.68 ± 0.45 µM; Selective Index (HCV-Luc; Table 5): 32
CC(C)(C)OC(=O)NCCOCCOCCOCCOCCN1CCN(C(c2ccccc2)c2ccc(Cl)cc2)CC1 (racemic) [(CH2CH2O)4(CH2)2NHC(═O)Ot-Bu (R,S), tert-Butyl (14-(4-((4-chlorophenyl)(phenyl)methyl)piperazin-1-yl)-3,6,9,12-tetraoxatetradecyl)carbamate]	19 ± 4 µM	0.199 ± 0.03 µM	95	
CC(=O)NCCOCCOCCOCCOCCN1CCN(C(c2ccccc2)c2ccc(Cl)cc2)CC1 (racemic) [(CH2CH2O)4CH2CH2NHC(═O)Me (R,S), N-(14-(4-((4-Chlorophenyl)(phenyl)methyl)piperazin-1-yl)-3,6,9,12-tetraoxatetradecyl)acetamide]	> 100 µM	0.17 ± 0.022 µM	>588	
NCCOCCN1CCN(C(c2ccccc2)c2ccc(Cl)cc2)CC1 (racemic) [CH2CH2OCH2CH2NH2 (R,S), 2-(2-(4-((4-Chlorophenyl)(phenyl)methyl)piperazin-1-yl)ethoxy)ethanamine]	8.18 µM	0.0048 ± 0.0011 µM	1704	
OCCOCCN1CCN(C(c2ccccc2)c2ccc(Cl)cc2)CC1 (racemic) [CH2CH2OCH2CH2OH (R,S), 2-(2-(4-((4-Chlorophenyl)(phenyl)methyl)piperazin-1-yl)ethoxy)ethanol]		0.032 ± 0.011 µM		CC50 [1]: 42.6 ± 1.8 µM; Selective Index (HCV-Luc): 1331
NC(=O)COCCN1CCN(C(c2ccccc2)c2ccc(Cl)cc2)CC1 (racemic) [CH2CH2OCH2CONH2 (R,S), 2-(2-(4-((4-Chlorophenyl)(phenyl)methyl)piperazin-1-yl)ethoxy)acetamide]	> 100 µM	0.103 ± 0.052 µM	>910	
O=C(O)COCCN1CCN(C(c2ccccc2)c2ccc(Cl)cc2)CC1 (racemic) [CH2CH2OCH2COOH (R,S), 2-(2-(4-((4-Chlorophenyl)(phenyl)methyl)piperazin-1-yl)ethoxy) acetic acid]		> 31.6 µM		
COc1ccc(CN2CCN([C@@H](c3ccccc3)c3ccc(Cl)cc3)CC2)c(OC)c1 [2-4-dimethoxybenzyl (S), (S)-1-((4-Chlorophenyl)(phenyl)methyl)-4-(2,4-dimethoxybenzyl)piperazine]	38.4 ± 4.2 µM	0.456 ± 0.235 µM	84	
O=C1c2ccccc2C(=O)N1CCOCCN1CCN(C(c2ccccc2)c2ccc(Cl)cc2)CC1 (stereo not shown) [2-(2-(2-(4-((4-Chlorophenyl)(phenyl)methyl)piperazin-1-yl)ethoxy)ethyl)isoindoline-1,3-dione]	> 100 µM	1.54 ± 0.57 µM	>65	
CC(C)CN1CCN([C@H](c2ccccc2)c2ccc(Cl)cc2)CC1 [2-methyl-1-propyl (R), (R)-1-((4-Chlorophenyl)(phenyl)methyl)-4-isobutylpiperazine]	58.2 ± 7.2 µM	0.232 ± 0.061 µM	251	
CC(C)CN1CCN([C@@H](c2ccccc2)c2ccc(Cl)cc2)CC1 [2-methyl-1-propyl (S), (S)-1-((4-Chlorophenyl)(phenyl)methyl)-4-isobutylpiperazine]	51.7 ± 1.4 µM	0.102 ± 0.018 µM	507	

Compound	CC50 (Huh7.5.1 cells; human)	EC50 (HCV-Luc; Table 3, read-out: EC50)	Selective Index (HCV-Luc; Table 3)	also measured
CC(=O)N1CCN([C@@H](c2ccccc2)c2ccc(Cl)cc2)CC1 [Acetyl (S), (S)-1-(4-((4-Chlorophenyl)(phenyl)methyl)piperazin-1-yl)ethanone]	91.3 ± 1 µM	22 ± 3.2 µM	4	
[2H]C([2H])([2H])N1CCN([C@H](c2ccccc2)c2ccc(Cl)cc2)CC1 [CD3 (R), (R)-1-((4-Chlorophenyl)(phenyl)methyl)-4-methyl(d3)piperazine]	46.7 ± 0.4 µM	0.04 ± 0.017 µM		
[2H]C([2H])([2H])N1CCN([C@@H](c2ccccc2)c2ccc(Cl)cc2)CC1 [CD3 (S), (S)-1-((4-Chlorophenyl)(phenyl)methyl)-4-methyl(d3)piperazine]	77.9 ± 3.1 µM	0.063 ± 0.025 µM		
[2H]C([2H])([2H])CN1CCN([C@H](c2ccccc2)c2ccc(Cl)cc2)CC1 [CD3CH2 (R), (R)-1-((4-Chlorophenyl)(phenyl)methyl)-4-ethyl(2,2,2-d3)piperazine]	81.5 ± 0.5 µM			
[2H]C([2H])([2H])CN1CCN([C@@H](c2ccccc2)c2ccc(Cl)cc2)CC1 [CD3CH2 (S), (S)-1-((4-Chlorophenyl)(phenyl)methyl)-4-ethyl(2,2,2-d3)piperazine]	71.3 ± 11.4 µM			
FC(F)(F)CN1CCN([C@H](c2ccccc2)c2ccc(Cl)cc2)CC1 [CF3CH2 (R), (R)-1-((4-Chlorophenyl)(phenyl)methyl)-4-(2,2,2-trifluoroethyl)piperazine]	> 100 µM	> 31.6 µM		
FC(F)(F)CN1CCN([C@@H](c2ccccc2)c2ccc(Cl)cc2)CC1 [CF3CH2 (S), (S)-1-((4-Chlorophenyl)(phenyl)methyl)-4-(2,2,2-trifluoroethyl)piperazine]	> 100 µM	> 31.6 µM		
OCCOCCN1CCN(C(c2ccc(Cl)cc2)c2ccc(Cl)cc2)CC1 [Cl, Cl, CH2CH2OCH2CH2OH, 2-(2-(4-(bis(4-Chlorophenyl)methyl)piperazin-1-yl)ethoxy)ethanol]				EC50 (HCV-Luc): 0.0055 ± 0.0022 µM
Clc1ccc([C@H](c2ccccc2)N2CCN(C3CCCCC3)CC2)cc1 [Cyclohexyl (S), (S)-1-((4-Chlorophenyl)(phenyl)methyl)-4-cyclohexylpiperazine]	12.3 ± 0.3 µM	0.177 ± 0.037 µM	69	
Clc1ccc([C@H](c2ccccc2)N2CCN(C3CCCC3)CC2)cc1 [Cyclopentyl (S), (S)-1-((4-Chlorophenyl)(phenyl)methyl)-4-cyclopentylpiperazine]	30.4 ± 2.8 µM	0.019 ± 0.006 µM	1600	
CCN1CCN([C@H](c2ccccc2)c2ccc(Cl)cc2)CC1 [Et (R), (R)-1-((4-Chlorophenyl)(phenyl)methyl)-4-ethylpiperazine]	37.9 ± 3.3 µM			
Clc1ccc([C@@H](c2ccccc2)N2CCNCC2)cc1 [H (R), (R)-1-((4-Chlorophenyl)(phenyl)methyl)piperazine]	12.5 ± 1.4 µM	0.032 ± 0.022 µM	391	
Clc1ccc([C@H](c2ccccc2)N2CCNCC2)cc1 [H (S), (S)-1-((4-Chlorophenyl)(phenyl)methyl)piperazine]	9.31 ± 0.04 µM	0.034 ± 0.012 µM	0274	
CC(C)N1CCN([C@@H](c2ccccc2)c2ccc(Cl)cc2)CC1 [i-Pr (S), (S)-1-((4-Chlorophenyl)(phenyl)methyl)-4-isopropylpiperazine]	32.4 ± 3.8 µM	0.013 ± 0.004 µM	2492	
CCCCN1CCN([C@H](c2ccccc2)c2ccc(Cl)cc2)CC1 [n-Bu (R), (R)-1-Butyl-4-((4-chlorophenyl)(phenyl)methyl)piperazine]	40.8 ± 0.4 µM	0.195 ± 0.084 µM	309	
CCCCN1CCN([C@@H](c2ccccc2)c2ccc(Cl)cc2)CC1 [n-Bu (S), (S)-1-Butyl-4-((4-chlorophenyl)(phenyl)methyl)piperazine]	31.1 ± 4.2 µM	0.042 ± 0.023 µM	740	
CCCN1CCN([C@H](c2ccccc2)c2ccc(Cl)cc2)CC1 [n-Pr (R), (R)-1-((4-Chlorophenyl)(phenyl)methyl)-4-propylpiperazine]	48.5 ± 1.1 µM	0.024 ± 0.005 µM	2021	
CCCN1CCN([C@@H](c2ccccc2)c2ccc(Cl)cc2)CC1 [n-Pr (S), (S)-1-((4-Chlorophenyl)(phenyl)methyl)-4-propylpiperazine]	39.7 ± 0.9 µM	0.032 ± 0.018 µM	1241	
